Results taken from paper PMC9779606, “Synthesis, Structural Characterization and Biological Activity Evaluation of Novel Cu(II) Complexes with 3-(trifluoromethyl)phenylthiourea Derivatives” (International Journal of Molecular Sciences, 2022).
In brackets after ≈: the same amount, converted by molar mass.

Each compound was assayed on M. tuberculosis Spec. 210 (assay: Tuberculostatic activity, Microplate Alamar Blue Assay (MABA)). Settings: M. tuberculosis Spec. 210, patient isolate resistant to PAS, INH, ETB, RMP.
Assay type: cell-based, Mycobacterium tuberculosis
Protocol: The synthesized compounds were examined in vitro for their tuberculostatic activity using MABA method (Microplate Alamar Blue Assay method). […] The inoculum was prepared from fresh LJ culture in Middlebrook 7H9 Broth medium with OADC, adjusted to a no. 1 McFarland tube, and diluted 1:20. […] Each test compound stock solution was diluted in Middlebrook 7H9 Broth medium with OADC by fourfold, the final highest concentration to be tested. Compounds were diluted serially in sterile 96-well microtiter plates using 100 μL Middlebrook 7H9 Broth medium with OADC. […] A growth control containing no antibiotic and a sterile control without inoculation were also prepared on each plate. The plates were incubated at 37 °C for a week. After the incubation period, 30 μL of Alamar blue solution was added to each well, and the plate was re-incubated for 24 h. Growth is indicated by a color change from blue to pink and the lowest concentration of compound that prevented the color change was noted as its MIC. Isoniazid (INH), Rifampicin (RMP), Streptomycin (SM), and Ethambutol (EMB) as reference drugs were used for comparison.

Question: How did the MIC turn out when CC(NC(=S)[N-]c1cccc(C(F)(F)F)c1)c1ccccc1.CC(NC(=S)[N-]c1cccc(C(F)(F)F)c1)c1ccccc1.[Cu+2] (racemic) [Cu2, Copper(II) Complex with 1-(1-phenylethyl)-3-[3-(trifluoromethyl)phenyl]thiourea] was run?
Answer: 8 µg/mL

Question: With FC(F)(F)c1cccc([N-]C(=S)Nc2cccc(Br)c2)c1.FC(F)(F)c1cccc([N-]C(=S)Nc2cccc(Br)c2)c1.[Cu+2] [Cu4, Copper(II) Complex with 1-(3-bromophenyl)-3-[3-(trifluoromethyl)phenyl] thiourea] as the compound, how does the MIC read?
Answer: 4 µg/mL

Question: With O.O=[N+]([O-])c1cc(NC(=S)[N-]c2cccc(C(F)(F)F)c2)ccc1Cl.O=[N+]([O-])c1cc(NC(=S)[N-]c2cccc(C(F)(F)F)c2)ccc1Cl.[Cu+2] [Cu5, Copper(II) Complex with 1-(4-chloro-3-nitrophenyl)-3-[3-(trifluoromethyl)phenyl]thiourea] as the compound, how does the MIC read?
Answer: 4 µg/mL

Question: For FC(F)(F)c1cccc([N-]C(=S)NCCc2ccccc2)c1.FC(F)(F)c1cccc([N-]C(=S)NCCc2ccccc2)c1.O.[Cu+2] [Cu1, Copper(II) Complex with 1-(2-phenylethyl)-3-[3-(trifluoromethyl)phenyl]thiourea], which MIC is on record?
Answer: 16 µg/mL

Question: With FC(F)(F)c1cccc([N-]C(=S)NCc2ccccc2)c1.FC(F)(F)c1cccc([N-]C(=S)NCc2ccccc2)c1.[Cu+2] [Cu3, Copper(II) Complex with 1-benzyl-3-[3-(trifluoromethyl)phenyl]thiourea] as the compound, how does the MIC read?
Answer: 16 µg/mL

Same assay, conditions: Mycobacterium tuberculosis, M. tuberculosis Spec. 210, patient isolate resistant to PAS, INH, ETB, RMP, read-out: MIC

Question: Which MIC does the source give for NNC(=O)c1ccncc1 [Isoniazid (INH), Isoniazid, reference compound] here?
Answer: 16 µg/mL (≈ 117 µM)

Question: CC[C@@H](CO)NCCN[C@@H](CC)CO [Ethambutol (EMB), Ethambutol, reference compound] was tested. Which MIC did it give?
Answer: 32 µg/mL (≈ 157 µM)

Question: With [H]/N=C(/N)N[C@H]1[C@H](O)[C@@H](O)[C@H](O[C@@H]2O[C@@H](C)[C@](O)(C=O)[C@H]2O[C@@H]2O[C@@H](CO)[C@H](O)[C@@H](O)[C@@H]2NC)[C@@H](N/C(N)=N\[H])[C@@H]1O [Streptomycin (SM), Streptomycin, reference compound] as the compound, how does the MIC read?
Answer: 16 µg/mL (≈ 27.5 µM)

Question: CO[C@H]1/C=C/O[C@@]2(C)Oc3c(C)c(O)c4c(O)c(c(/C=N/N5CCN(C)CC5)c(O)c4c3C2=O)NC(=O)/C(C)=C\C=C\[C@H](C)[C@H](O)[C@@H](C)[C@@H](O)[C@@H](C)[C@H](OC(C)=O)[C@@H]1C [Rifampicin (RMP), Rifampicin, reference compound] was tested. Which MIC did it give?
Answer: 32 µg/mL (≈ 38.9 µM)
